Assay results as given in patent US20120202822A1, “COMBINATION” (priority 2009, published 2012).

Assays:
Experiment in all cases: Fixed Ratio Drug Combination Assay, cell proliferation (CellTiter Glo)
Format in all cases: cell-based, human
[1] = tested on: COLO205; details: for Ymin/T0: 72 hours; for IC50: Homo sapiens, COLO 205, 72 hours, read-out: gIC50
Method: (§1) Combination drug tests with Compounds A and B were conducted using a panel of cell lines from human colon cancers (n=25) (Table 1). Cell lines were purchased commercially [from ATCC (Manassas, Va., USA) or DSMZ (Braunschweig, Germany)] and grown in RPMI-1640 supplemented with 2 mM glutamine, 1 mM sodium pyruvate and 10% fetal bovine serum and maintained at 37° C. and 5% CO2 in a humid incubator.
(§2) The dilution design of the Fixed Ratio Drug Combination Assay can be seen in FIG. 1. First, the test compounds were prepared as 10 mM stocks in 100% dimethyl sulfoxide (DMSO). Further dilutions of the compounds were made with DMSO. The first test compound (designated as Compound A) is diluted horizontally in a 96 well microtiter plate in rows B-E using a 3-fold dilution series for 10 dilution points. A second test compound (designated as Compound B) is diluted horizontally in a separate 96 well microtiter plate in rows D-G using a 3-fold dilution series for 10 dilution points. The two compounds are combined using equal volumes from each drug plate into cell culture media. […] Compound A is individually titrated in rows B and C, while only Compound B is dosed in rows F and G of the plate. An additional 1:10 dilution of the drugs is performed in cell culture media prior to addition to the cells. Drug addition to the cells results in a further 1:2 dilution of drugs. The total dilution of the drug plate to the cells is […]. The final dosing concentration range for Compound B was 0.1-1000.0 nM and was 0.5-10000.0 nM for Compound A. The positive control consists of culture media with DMSO at 0.1% and cells and no drug. The negative control consists of culture media with DMSO at 0.1%. solution.
(§3) Assays were performed in 96 well microtiter plates with appropriate seeding densities estimated from previous studies of each cell line. Following dosing, the cell lines are incubated at 37° C., 5% CO2 in humid air for 72 hours. Cell proliferation was measured using the CellTiter Glo (Promega Corporation, Madison, Wis., USA) reagent according to the manufacturer's protocol. The plates are treated with CellTiter Glo solution and are analyzed for RLU (relative light units) using a Molecular Devices SpectraMax M5 (Sunnyvale, Calif., USA) plate reader.
(§4) Results are expressed as a percentage of the number of cells present at the time of compound addition value (T0) and plotted against compound(s) concentration. The percent intensity values were used in model 205 of the IDBS XLfit plug-in for Microsoft Excel to calculate gIC50 values using a 4 parameter logistical fit. Background correction is made by subtraction of values from wells containing no cells. The midpoint of the growth window (the gIC50) falls half way between the number of cells at the time of compound addition and the growth of control cells treated with DMSO at 72 hrs. The number of cells at time zero is divided from the intensity value at the bottom of the response curve (Ymin) to generate a measure for cell death (Ymin/T0). A value below 1 for Ymin/T0 indicates stronger potency with the treatment when compared to higher values. For duplicate assays, all response metrics are averaged for presentation.
(§5) Three independent metrics were used to analyze the combinatorial effects on growth inhibition of Compound B and Compound A. • 1. Excess over Highest Single Agent (EOHSA)—One standard criterion for measuring drug combinatorial effects is analyzing the effects on cell growth inhibition in absolute terms. In this case, the combination of drugs is compared to the more responsive of the two individual treatments (single agent). For each combination experiment, the percent effect relative to the highest single agent for each dose along the curve is generated. This measure of “Excess of Highest Single Agent (EOHSA)” is one of the criteria used for evaluating synergy of drug combinations. […]

[2] = tested on: DLD1; details: for Ymin/T0: 72 hours; for IC50: Homo sapiens, DLD-1, 72 hours, read-out: gIC50
Method: as §1, §2, §3, §4, §5

[3] = tested on: HCC2998; details: for Ymin/T0: 72 hours; for IC50: Homo sapiens, HCC 2998, 72 hours, read-out: gIC50
Method: as §1, §2, §3, §4, §5

[4] = tested on: HCT116; details: for Ymin/T0: 72 hours; for IC50: Homo sapiens, HCT-116, 72 hours, read-out: gIC50
Method: as §1, §2, §3, §4, §5

[5] = tested on: HCT15; details: for Ymin/T0: 72 hours; for IC50: Homo sapiens, HCT-15, 72 hours, read-out: gIC50
Method: as §1, §2, §3, §4, §5

[6] = tested on: HCT8; details: for Ymin/T0: 72 hours; for IC50: Homo sapiens, HCT-8, 72 hours, read-out: gIC50
Method: as §1, §2, §3, §4, §5

[7] = tested on: HT29; details: for Ymin/T0: 72 hours; for IC50: Homo sapiens, HT-29, 72 hours, read-out: gIC50
Method: as §1, §2, §3, §4, §5

[8] = tested on: KM12; details: 72 hours; for IC50: Homo sapiens, read-out: gIC50
Method: as §1, §2, §3, §4, §5

[9] = tested on: LS1034; details: for Ymin/T0: 72 hours; for IC50: Homo sapiens, LS-1034, 72 hours, read-out: gIC50
Method: as §1, §2, §3, §4, §5

[10] = tested on: LS174T; details: 72 hours; for IC50: Homo sapiens, read-out: gIC50
Method: as §1, §2, §3, §4, §5

[11] = tested on: NCIH508; details: for Ymin/T0: 72 hours; for IC50: Homo sapiens, NCI-H508, 72 hours, read-out: gIC50
Method: as §1, §2, §3, §4, §5

[12] = tested on: NCIH630; details: for Ymin/T0: 72 hours; for IC50: Homo sapiens, NCI-H630, 72 hours, read-out: gIC50
Method: as §1, §2, §3, §4, §5

[13] = tested on: NCIH716; details: for Ymin/T0: 72 hours; for IC50: Homo sapiens, NCI-H716, 72 hours, read-out: gIC50
Method: as §1, §2, §3, §4, §5

[14] = tested on: NCIH747; details: for Ymin/T0: 72 hours; for IC50: Homo sapiens, NCI-H747, 72 hours, read-out: gIC50
Method: as §1, §2, §3, §4, §5

[15] = tested on: RKO; details: 72 hours; for IC50: Homo sapiens, read-out: gIC50
Method: as §1, §2, §3, §4, §5

[16] = tested on: SW1463; details: 72 hours; for IC50: Homo sapiens, read-out: gIC50
Method: as §1, §2, §3, §4, §5

[17] = tested on: SW403; details: for Ymin/T0: 72 hours; for IC50: Homo sapiens, SW-403, 72 hours, read-out: gIC50
Method: as §1, §2, §3, §4, §5

[18] = tested on: SW480; details: 72 hours; for IC50: Homo sapiens, read-out: gIC50
Method: as §1, §2, §3, §4, §5

[19] = tested on: SW48; details: 72 hours; for IC50: Homo sapiens, read-out: gIC50
Method: as §1, §2, §3, §4, §5

[20] = tested on: SW948; details: 72 hours; for IC50: Homo sapiens, read-out: gIC50
Method: as §1, §2, §3, §4, §5

[21] = tested on: T84; details: 72 hours; for IC50: Homo sapiens, read-out: gIC50
Method: as §1, §2, §3, §4, §5

## COc1ncc(-c2ccc3nccc(-c4ccnnc4)c3c2)cc1NS(=O)(=O)c1ccc(F)cc1F [Compound B, 2,4-difluoro-N-{2-(methyloxy)-5-[4-(4-pyridazinyl)-6-quinolinyl]-3-pyridinyl}benzenesulfonamide]
[1]
  Ymin/T0: 1.4
  IC50: 0.012 µM
[2]
  Ymin/T0: 1.8
  IC50: 0.0205 µM
[3]
  Ymin/T0: 0.9
  IC50: 0.0047 µM
[4]
  Ymin/T0: 4.1
  IC50: 0.0342 µM
[5]
  Ymin/T0: 2.4
  IC50: 0.0072 µM
[6]
  Ymin/T0: 1.6
  IC50: 0.0084 µM
[7]
  Ymin/T0: 2.0
  IC50: 0.0074 µM
[8]
  Ymin/T0: 1.4
  IC50: 0.0221 µM
[9]
  Ymin/T0: 0.5
  IC50: 0.0014 µM
[10]
  Ymin/T0: 0.8
  IC50: 0.0341 µM
[11]
  Ymin/T0: 0.5
  IC50: 0.0012 µM
[12]
  Ymin/T0: 0.9
  IC50: 0.0183 µM
[13]
  Ymin/T0: 0.7
  IC50: 0.0011 µM
[14]
  Ymin/T0: 0.5
  IC50: 0.0027 µM
[15]
  Ymin/T0: 3.0
  IC50: 0.0109 µM
[16]
  Ymin/T0: 0.9
  IC50: 0.0082 µM
[17]
  Ymin/T0: 0.5
  IC50: 0.0015 µM
[18]
  Ymin/T0: 1.1
  IC50: 0.0054 µM
[19]
  Ymin/T0: 0.4
  IC50: 0.0026 µM
[20]
  Ymin/T0: 0.4
  IC50: 0.0003 µM
[21]
  Ymin/T0: 0.7
  IC50: 0.006 µM

## CC(C)(C)c1nc(-c2cccc(NS(=O)(=O)c3c(F)cccc3F)c2F)c(-c2ccnc(N)n2)s1 [Compound A, N-{3-[5-(2-amino-4-pyrimidinyl)-2-(1,1-dimethylethyl)-1,3-thiazol-4-yl]-2-fluorophenyl}-2,6-difluorobenzenesulfonamide]
[1]
  Ymin/T0: 1.2
  IC50: 0.0073 µM
[2]
  Ymin/T0: 6.7
  IC50: 0.199 µM
[3]
  Ymin/T0: 2.8
  IC50: 2.4 µM
[4]
  Ymin/T0: 9.2
  IC50: > 10 µM
[5]
  Ymin/T0: 6.1
  IC50: > 10 µM
[6]
  Ymin/T0: 9.2
  IC50: > 10 µM
[7]
  Ymin/T0: 4.0
  IC50: 0.0172 µM
[8]
  Ymin/T0: 8.8
  IC50: > 10 µM
[9]
  Ymin/T0: 1.9
  IC50: > 10 µM
[10]
  Ymin/T0: 7.0
  IC50: > 10 µM
[11]
  Ymin/T0: 2.1
  IC50: 0.366 µM
[12]
  Ymin/T0: 1.9
  IC50: 5 µM
[13]
  Ymin/T0: 1.3
  IC50: > 10 µM
[14]
  Ymin/T0: 1.3
  IC50: > 10 µM
[15]
  Ymin/T0: 6.7
  IC50: 8.95 µM
[16]
  Ymin/T0: 1.9
  IC50: > 10 µM
[17]
  Ymin/T0: 2.7
  IC50: > 10 µM
[18]
  Ymin/T0: 2.9
  IC50: > 10 µM
[19]
  Ymin/T0: 4.7
  IC50: > 10 µM
[20]
  Ymin/T0: 1.5
  IC50: > 10 µM
[21]
  Ymin/T0: 2.0
  IC50: > 10 µM
